Values belong to the compound of their own block, whether it stands above or below them. Activity calls are given as the source filed them.
Key:
[1] = target: Luciferin 4-monooxygenase (Photinus pyralis, UniProt P08659); test: inhibition of purified Photinus pyralis luciferase – biochemical, luminescence, dose response (AID 1891)
[2] = Luminescence Cell-Based Dose Confirmation HTS to Identify Inhibitors of Platelet Dense Granule Release. [Related pubchem assays: 1663 (Primary HTS), 1678 (Summary of Project)]; assay type: functional
[3] = Luminescence Cell-Based Dose Retest to Confirm Inhibitors of Cancer Stem Cells. [Related pubchem assays (depositor defined):AID2717, AID2721]; assay type: functional; details: Homo sapiens
[4] = alpha-synuclein stem-loop luciferase translation blockers – H4 neuroglioma cells, luminescence, confirmation (AID 1988); assay type: functional, cell-based
[5] = target: T1, Short transient receptor potential channel 4 (Mus musculus, UniProt Q9QUQ5); test: block of DAMGO-driven TRPC4 calcium entry – cell-based, HEK293 TRPC4/mu-opioid, Fluo-4 calcium, dose response (AID 434942); assay type: functional;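 also: potency of inhibitors blocking the TRPC4 calcium response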
T1 sequence (Q9QUQ5 whole entry): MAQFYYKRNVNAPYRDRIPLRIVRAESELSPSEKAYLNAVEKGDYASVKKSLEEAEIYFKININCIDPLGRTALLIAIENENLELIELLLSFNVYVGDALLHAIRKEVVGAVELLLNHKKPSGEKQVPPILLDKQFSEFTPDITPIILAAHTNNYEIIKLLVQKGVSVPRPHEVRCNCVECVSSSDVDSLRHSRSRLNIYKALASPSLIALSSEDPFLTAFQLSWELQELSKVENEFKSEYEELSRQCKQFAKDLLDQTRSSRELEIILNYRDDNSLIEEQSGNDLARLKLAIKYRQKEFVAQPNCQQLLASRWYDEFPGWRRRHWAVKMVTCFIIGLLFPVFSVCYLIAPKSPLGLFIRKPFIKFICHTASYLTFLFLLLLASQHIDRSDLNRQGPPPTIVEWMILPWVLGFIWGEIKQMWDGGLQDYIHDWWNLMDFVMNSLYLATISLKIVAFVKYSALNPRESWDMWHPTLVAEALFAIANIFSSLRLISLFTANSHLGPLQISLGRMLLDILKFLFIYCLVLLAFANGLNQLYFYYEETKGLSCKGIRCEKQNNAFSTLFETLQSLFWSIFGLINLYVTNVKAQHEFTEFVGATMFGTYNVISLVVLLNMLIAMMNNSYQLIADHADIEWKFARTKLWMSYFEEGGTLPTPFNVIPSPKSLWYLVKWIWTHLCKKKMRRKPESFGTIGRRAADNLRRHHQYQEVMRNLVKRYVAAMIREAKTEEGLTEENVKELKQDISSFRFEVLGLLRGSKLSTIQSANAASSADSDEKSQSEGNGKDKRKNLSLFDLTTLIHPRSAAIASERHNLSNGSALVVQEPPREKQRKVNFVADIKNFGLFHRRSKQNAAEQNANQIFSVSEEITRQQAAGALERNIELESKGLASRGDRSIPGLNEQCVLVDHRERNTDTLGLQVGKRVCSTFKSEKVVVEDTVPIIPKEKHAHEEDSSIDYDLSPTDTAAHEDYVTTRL

[6] = target: T2, RNA-binding protein pos-1 (Caenorhabditis elegans, UniProt G5EF15); test: disruptors of C. elegans POS-1 RNA interaction – biochemical, fluorescence polarization, dose response (AID 1964);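 also: purified POS-1 fused to maltose binding protein made in E. coli; potency of compounds blocking POS-1 binding to fluorescent RNA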
T2 sequence (G5EF15 whole entry): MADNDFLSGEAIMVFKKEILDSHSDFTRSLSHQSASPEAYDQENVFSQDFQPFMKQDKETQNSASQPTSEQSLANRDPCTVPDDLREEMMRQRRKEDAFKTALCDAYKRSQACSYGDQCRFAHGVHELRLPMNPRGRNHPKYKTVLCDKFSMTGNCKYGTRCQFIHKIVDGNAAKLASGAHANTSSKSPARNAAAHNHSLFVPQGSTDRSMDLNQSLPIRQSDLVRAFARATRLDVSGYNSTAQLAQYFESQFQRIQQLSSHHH

H9c2 = test: cells; assay type: functional, cell-based; details: Rattus norvegicus, H9c2, Myocardium;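 also: confirmatory concentration-response retest of ultra-high-throughput screening hits for modulation of myocardial damage; cell death induced by hydrogen peroxide oxidative stress; compound pretreatment for 60 min then peroxide exposure for 2 h; potency is for protecting the cells against peroxide damage rather than for killing them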
[7] = target: T3, Rac GTPase-activating protein 1 (Homo sapiens, UniProt Q9H0H5); test: blockers of MgcRacGAP-driven Rac1 GTP hydrolysis – biochemical, ADP Hunter fluorescence, primary and confirmatory, confirmation (AID 624330); assay type: functional
T3 sequence (Q9H0H5 whole entry): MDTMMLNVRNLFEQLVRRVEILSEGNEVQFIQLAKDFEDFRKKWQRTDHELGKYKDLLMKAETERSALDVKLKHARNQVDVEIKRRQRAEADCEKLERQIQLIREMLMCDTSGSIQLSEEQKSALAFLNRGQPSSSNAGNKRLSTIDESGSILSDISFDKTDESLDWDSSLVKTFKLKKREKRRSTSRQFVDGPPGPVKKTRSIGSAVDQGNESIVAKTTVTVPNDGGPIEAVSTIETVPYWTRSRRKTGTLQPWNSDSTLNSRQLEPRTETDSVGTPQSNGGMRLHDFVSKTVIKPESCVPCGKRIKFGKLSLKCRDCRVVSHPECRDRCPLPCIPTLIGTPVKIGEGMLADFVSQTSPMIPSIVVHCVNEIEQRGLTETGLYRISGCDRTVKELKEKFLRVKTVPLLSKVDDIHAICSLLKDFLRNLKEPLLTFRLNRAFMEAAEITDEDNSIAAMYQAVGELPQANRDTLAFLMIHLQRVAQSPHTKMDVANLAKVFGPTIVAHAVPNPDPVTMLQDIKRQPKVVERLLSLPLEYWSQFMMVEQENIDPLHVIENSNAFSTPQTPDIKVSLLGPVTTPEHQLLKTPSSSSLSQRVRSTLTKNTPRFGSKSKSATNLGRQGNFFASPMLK

Cytochrome P450 2C19 = Cytochrome P450 2C19 (Homo sapiens, UniProt P33261); test: Cytochrome panel assay with activity outcomes. Panel member name: p450-cyp2c19 Compounds with AC50 equal or less than 10 uM are considered active; assay type: functional; details: read-out: AC50
Cytochrome P450 2C9 = Cytochrome P450 2C9 (Homo sapiens, UniProt P11712)
Cytochrome P450 3A4 = Cytochrome P450 3A4 (Homo sapiens, UniProt P08684);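 also: CYP3A4 tested as one member of a cytochrome P450 panel screen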
Cytochrome P450 1A2 = target: T4, Cytochrome P450 1A2 (Homo sapiens, UniProt P05177);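 also: PubChem cytochrome P450 panel assay, CYP1A2 panel member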
T4 sequence (P05177 whole entry): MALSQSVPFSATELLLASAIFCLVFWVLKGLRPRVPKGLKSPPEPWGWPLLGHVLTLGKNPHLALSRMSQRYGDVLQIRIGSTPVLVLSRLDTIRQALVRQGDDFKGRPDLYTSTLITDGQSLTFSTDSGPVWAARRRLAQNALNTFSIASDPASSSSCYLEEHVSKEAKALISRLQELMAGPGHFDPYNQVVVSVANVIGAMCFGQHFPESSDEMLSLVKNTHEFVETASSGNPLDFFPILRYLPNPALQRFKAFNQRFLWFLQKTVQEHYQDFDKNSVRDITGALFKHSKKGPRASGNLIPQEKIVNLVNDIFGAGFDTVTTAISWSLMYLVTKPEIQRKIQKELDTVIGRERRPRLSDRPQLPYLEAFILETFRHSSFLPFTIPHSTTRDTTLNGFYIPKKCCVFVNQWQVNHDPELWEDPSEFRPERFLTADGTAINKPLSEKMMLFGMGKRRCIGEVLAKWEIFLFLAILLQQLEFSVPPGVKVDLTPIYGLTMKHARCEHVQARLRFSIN

Chain of Luciferin 4-monooxygenase (P08659 whole entry): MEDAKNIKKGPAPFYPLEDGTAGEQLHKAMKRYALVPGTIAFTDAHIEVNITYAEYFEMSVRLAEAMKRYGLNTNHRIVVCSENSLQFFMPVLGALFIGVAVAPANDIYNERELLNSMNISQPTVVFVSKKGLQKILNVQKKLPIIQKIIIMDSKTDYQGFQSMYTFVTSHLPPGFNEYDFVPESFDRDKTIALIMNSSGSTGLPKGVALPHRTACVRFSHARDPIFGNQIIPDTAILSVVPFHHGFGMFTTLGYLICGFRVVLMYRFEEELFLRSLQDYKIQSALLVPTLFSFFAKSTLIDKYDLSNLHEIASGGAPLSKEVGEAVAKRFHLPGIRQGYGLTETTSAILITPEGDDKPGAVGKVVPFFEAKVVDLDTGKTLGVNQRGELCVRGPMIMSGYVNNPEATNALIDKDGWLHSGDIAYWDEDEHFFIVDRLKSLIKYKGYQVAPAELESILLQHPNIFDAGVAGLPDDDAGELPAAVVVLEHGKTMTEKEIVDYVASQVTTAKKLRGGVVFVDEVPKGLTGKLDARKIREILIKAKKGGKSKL
Chain of Cytochrome P450 2C19 (P33261 whole entry): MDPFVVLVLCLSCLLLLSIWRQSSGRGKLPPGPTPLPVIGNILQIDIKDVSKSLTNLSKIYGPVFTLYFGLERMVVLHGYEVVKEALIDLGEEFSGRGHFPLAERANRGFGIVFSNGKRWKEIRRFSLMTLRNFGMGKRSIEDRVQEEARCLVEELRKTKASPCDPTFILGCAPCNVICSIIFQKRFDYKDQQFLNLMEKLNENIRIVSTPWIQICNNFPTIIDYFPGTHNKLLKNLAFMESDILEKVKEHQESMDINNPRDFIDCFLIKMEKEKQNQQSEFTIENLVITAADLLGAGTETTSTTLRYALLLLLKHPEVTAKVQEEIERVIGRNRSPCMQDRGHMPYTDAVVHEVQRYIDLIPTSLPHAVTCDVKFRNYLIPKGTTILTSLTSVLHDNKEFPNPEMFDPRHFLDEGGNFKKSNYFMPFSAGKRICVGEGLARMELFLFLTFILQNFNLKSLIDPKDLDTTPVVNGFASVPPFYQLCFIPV
Chain of Cytochrome P450 2C9 (P11712 whole entry): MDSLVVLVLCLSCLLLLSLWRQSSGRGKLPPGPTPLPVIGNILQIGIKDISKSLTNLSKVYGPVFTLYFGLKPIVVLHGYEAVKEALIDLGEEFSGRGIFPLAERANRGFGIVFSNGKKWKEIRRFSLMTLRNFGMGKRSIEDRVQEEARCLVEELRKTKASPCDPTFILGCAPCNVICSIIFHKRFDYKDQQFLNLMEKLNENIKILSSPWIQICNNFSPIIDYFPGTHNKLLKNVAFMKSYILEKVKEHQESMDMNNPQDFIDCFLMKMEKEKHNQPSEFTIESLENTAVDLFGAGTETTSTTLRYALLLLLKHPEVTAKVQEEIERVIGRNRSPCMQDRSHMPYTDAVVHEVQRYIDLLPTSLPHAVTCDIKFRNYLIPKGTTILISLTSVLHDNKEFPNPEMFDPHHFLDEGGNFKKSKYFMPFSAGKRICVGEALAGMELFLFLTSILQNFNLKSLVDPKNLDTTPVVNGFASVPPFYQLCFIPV
Chain of Cytochrome P450 3A4 (P08684 whole entry): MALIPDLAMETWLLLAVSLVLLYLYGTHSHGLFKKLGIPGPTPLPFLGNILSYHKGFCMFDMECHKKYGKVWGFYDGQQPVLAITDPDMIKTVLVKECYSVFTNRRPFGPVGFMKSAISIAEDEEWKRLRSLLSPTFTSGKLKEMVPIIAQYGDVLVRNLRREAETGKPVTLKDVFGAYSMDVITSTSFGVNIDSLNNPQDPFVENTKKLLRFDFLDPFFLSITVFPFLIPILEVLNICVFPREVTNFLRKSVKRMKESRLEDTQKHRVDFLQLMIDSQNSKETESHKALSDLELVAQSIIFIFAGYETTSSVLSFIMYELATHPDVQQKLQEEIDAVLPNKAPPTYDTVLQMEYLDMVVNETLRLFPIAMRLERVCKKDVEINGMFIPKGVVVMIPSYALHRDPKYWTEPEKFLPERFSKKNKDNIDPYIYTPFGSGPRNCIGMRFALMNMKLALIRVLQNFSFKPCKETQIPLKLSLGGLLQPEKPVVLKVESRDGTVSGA

EC50 [5]: 2.99 µM (active)
Structure (SMILES): O=C(Cn1c(NCCCO)nc2ccccc21)c1ccc(Br)cc1

EC50 [6]: > 300 µM (not active)
Structure (SMILES): CN(C)c1ccc(/C=N/N(CCC(=O)NC(C)(C)C)C2=NS(=O)(=O)c3ccccc32)cc1

EC50 [5]: 8.41 µM (active)
Structure (SMILES): COc1ccc(CNC(=O)CN(C)Cc2ccccc2F)cc1OC

IC50 [7]: 99.7 µM (active)
Structure (SMILES): CCS(=O)(=O)c1ccc2oc(=O)c(/C=C(\O)c3ccc(Cl)cc3)nc2c1

IC50 [7]: 48.3 µM (active)
Structure (SMILES): Oc1ccc(N2CCN(c3ccnc4cc(Cl)ccc34)CC2)cc1

IC50 [7]: 35.9 µM (active)
Structure (SMILES): O=C1CSC(Nc2ccc(O)cc2)=N1

EC50 [5]: 2.37 µM (active)
Structure (SMILES): CCOC(=O)CSc1nc2c(sc(=S)n2Cc2ccco2)c(=O)n1-c1ccccc1

EC50 [5]: 4.22 µM (active)
Structure (SMILES): C=CCOc1ccc(C2CC(C)=NN2c2ccccc2)cc1 (configuration not stated)

IC50 [7]: 152 µM (active)
Structure (SMILES): COc1cc(CNC2CCCCC2OC)cc(OC)c1 (configuration not stated)

IC50 [7]: 18.2 µM (active)
Structure (SMILES): Oc1ccc(-c2csc(Nc3cccnc3)n2)cc1

EC50 [5]: 4.73 µM (active)
Structure (SMILES): CSc1nc(N2CCOCC2)c2c3c(sc2n1)CCCC3

EC50 [5]: 2.99 µM (active)
Structure (SMILES): CCCCN(Cc1ccccc1)C(=O)C1CCN(Cc2sccc2C)CC1

EC50 [5]: 1.68 µM (active)
Structure (SMILES): CCCCn1c(SCC(=O)OCC)nc2c(sc(=S)n2-c2ccccc2OC)c1=O

EC50 [5]: 2.37 µM (active)
Structure (SMILES): Cc1cc(C)c(S(=O)(=O)c2ccccc2C)c(OCC(C)(C)C)n1

EC50 [5]: 3.76 µM (active)
Structure (SMILES): Cc1ccc(NC(=O)CN2CCc3ccccc3C2)cc1S(=O)(=O)N1CCOCC1

EC50 [5]: 1.33 µM (active)
Structure (SMILES): COc1ccc(C)cc1N(C(=O)c1snc(C(N)=O)c1N)C(C(=O)NC1CCCC1)c1ccc(F)cc1 (configuration not stated)

EC50 [5]: 5.96 µM (active)
Structure (SMILES): Cc1ccc(NC(=O)CSCC(=O)OCc2cc(=O)oc3cc(O)ccc23)c(C)c1

EC50 [5]: 2.99 µM (active)
Structure (SMILES): Nc1c2c(nc3c1CCCC3)CCCC2.O=C(O)c1ccnc(O)c1

IC50 [7]: 39.8 µM (active)
Structure (SMILES): CCOc1cc(/C=N/NC(=O)C(C)Sc2ccccn2)ccc1O (configuration not stated)

IC50 [7]: 61.4 µM (active)
Structure (SMILES): COc1cc(/C=C/C(=O)OC(C)C(=O)Nc2c(C)n(C)n(-c3ccccc3)c2=O)ccc1O (configuration not stated)

Further lines, the compound ahead of its results:

Structure (SMILES): CCn1nnc(NC(=O)c2cccnc2)n1
EC50 [1]: > 112 µM (not active) | EC50 [2]: > 112 µM (not active)

Structure (SMILES): Clc1ccc(/C=C/c2nc3ccccc3[nH]2)cc1
AC50 [3]: 2.34 µM (active) | EC50 [1]: 0.545 µM (active) | EC50 [4]: 9.68 µM (inconclusive) | EC50 [2]: 1.05 µM (active)

Structure (SMILES): CC(C)CC(=O)Nc1cccc(NC(=O)c2ccccc2Cl)c1
EC50 [1]: > 112 µM (not active) | EC50 [2]: 2.39 µM (active)

Structure (SMILES): CC(=O)Nc1ccc(OC(=O)N(C)c2ccccc2)cc1
EC50 [1]: > 112 µM (not active) | EC50 [2]: 18.8 µM (active)

Structure (SMILES): CCOC(=O)c1ccccc1NC(=O)c1ccc2c(=O)n3c(nc2c1)CCCCC3
IC50 (H9c2): > 79 µM (inactive)

Structure (SMILES): O=C(CCCSc1nc(O)c2c3c(sc2n1)CCC3)NCCCO
IC50 (H9c2): 19.9 µM (active)

Structure (SMILES): COc1ccc(C(=O)NNC(=O)c2ccc3ccccc3n2)cc1
IC50 (H9c2): > 79 µM (inactive)

Structure (SMILES): O=C(CCc1ccccc1)Nc1nncs1
AC50 (Cytochrome P450 2C19): 39.8 µM (inconclusive) | EC50 [1]: > 112 µM (not active) | EC50 [2]: > 112 µM (not active) | AC50 (Cytochrome P450 2C9): 31.6 µM (inconclusive) | AC50 (Cytochrome P450 3A4): 12.6 µM (inconclusive)

Structure (SMILES): CCOC(=O)c1ccccc1OCc1cc(/C=N/NC(=O)c2cccnc2)ccc1OC
IC50 (H9c2): > 79 µM (inactive)

Structure (SMILES): Nc1nc(Nc2ccccc2)nc2c1ncn2[C@@H]1O[C@H](CO)[C@@H](O)[C@H]1O
EC50 [1]: > 112 µM (not active) | EC50 [2]: 0.224 µM (active)

Structure (SMILES): COc1ccc(CCCNC(=O)C2(C)Cc3c(-c4ccc(NC(C)=O)cc4)ccnc3O2)cc1 (configuration not stated)
IC50 (H9c2): > 79 µM (inactive)

Structure (SMILES): COc1cc(-c2cc(NC(C)=O)c3ncc(-c4cc(OC)c(OC)c(OC)c4)n3c2)cc(OC)c1OC
IC50 (H9c2): > 79 µM (inactive)

Structure (SMILES): CCOc1ccc(N/C=C/C(=O)c2ccc(OC)cc2)cc1
EC50 [1]: > 112 µM (not active) | EC50 [2]: > 112 µM (not active)

Structure (SMILES): CS(=O)(=O)N(Cc1ccc(C(=O)NCCSc2ccccn2)cc1)c1ccccc1
IC50 (H9c2): 17.4 µM (active)

Structure (SMILES): CN(CC(=O)Nc1cccc(F)c1)C(=O)CCCc1nc(O)c2ccccc2n1
IC50 (H9c2): > 79 µM (inactive)

Structure (SMILES): CCOc1cc(/C=C/c2nc(O)c3ccccc3n2)ccc1O
IC50 (H9c2): 9.17 µM (active)

Structure (SMILES): CCOC(=O)c1ccc(-c2ccc(/C=C(\C#N)C(=O)NCC3CCCO3)o2)cc1 (configuration not stated)
AC50 (Cytochrome P450 1A2): 4.47 µM (inconclusive) | AC50 (Cytochrome P450 2C19): 2.51 µM (inconclusive) | IC50 (H9c2): > 79 µM (inactive) | AC50 (Cytochrome P450 2C9): 5.62 µM (inconclusive)

Structure (SMILES): O=C(CN1C(=O)c2cccc3cccc1c23)N1CCN(c2cccc(Cl)c2)CC1
EC50 [1]: > 112 µM (not active) | EC50 [2]: > 112 µM (not active)

Structure (SMILES): CC(=O)Nc1cccc(-c2cc(NC(C)=O)c3ncc(-c4cccc(C(C)=O)c4)n3c2)c1
IC50 (H9c2): > 79 µM (inactive)

Structure (SMILES): Cc1ccccc1OCCC(=O)N1CCN(S(=O)(=O)c2ccccc2F)CC1
EC50 [1]: > 112 µM (not active) | EC50 [2]: > 112 µM (not active)
